What all share (assay type): cell-based, Plasmodium falciparum
Data set [1] relates to FCR3S1 rosettes.
For data set [2], the system named is TM 284 rosetting. To be noted: for change in rosetting after treatment of whole cultures, TM 284: compared to mock treated control cultures.
The test system of data set [3] is FCR3S1 rosetting. Conditions: compared to mock treated control cultures.
The test system of data set [4] is TM 284 rosettes.
The test system of data set [5] is uninfected RBC rosette binding capacity. Conditions: compared to non-treated RBC.
In data set [6] the test system is TM180 rosettes. Nature of the data set: Heparinase treatment, rosettes of strain TM180. Conditions: not shown.
Data set [7] concerns R29 rosettes. Nature of the data set: Heparinase treatment, rosettes of strain R29. Conditions: not shown.
The test system of data set [8] is FCR3S1.2 infected pRBC rosettes. Conditions: competitive rosette-reformation, enzyme 60–90 min.

Take Chondroitinase ABC: the “binding capacity of treated uninfected RBC, FCR3S1” value in data set [1] is reported as “unaffected”. Besides, in data set [2], the “change in rosetting after treatment of whole cultures, TM 284” value is recorded as “had only effect on the rosetting of the TM284 strain”. Also, the “change in rosetting after treatment of whole cultures, FCR3S1” value in data set [3] was “had only effect on the rosetting of the TM284 strain”. In addition, in data set [4], the “decrease of binding capacity of treated uninfected RBC, TM 284” value is recorded as “two fold decrease”.

In the case of Heparinase III, the “decrease of rosette binding capacity of treated uninfected RBC” value in data set [5] is on record as 4–5 fold. In data set [6], the “effect of heparinase treatment on rosettes, TM180” value is recorded as “disrupted the rosettes”. For the same substance, the “effect of heparinase treatment on rosettes, R29” value in data set [7] is “not affected”. Also, the “effect of enzyme treatment of the uninfected erythrocyte on rosette binding” value in data set [8] is on record as “treatment blocked the binding”. For the same substance, the “change in rosetting after treatment of whole cultures, TM 284” value in data set [2] was “somewhat lower decrease”. Further, the “effect of heparinase treatment on rosettes, TM284” value in data set [2] (not shown) is given as “disrupted the rosettes”. In data set [3], the “change in rosetting after treatment of whole cultures, FCR3S1” value is listed as “drastic reduction of the rosetting capacity”.

The values are drawn from patent US7125958B1, “Malaria polypeptides” (priority 1997, dated 2006).
